Columns and labels:
[1] = Singlet oxygen measurement, indirect evaluation (RNO reporter absorbance); type: physicochemical; conditions: indirect method, excitation at 450 nm, average of three, +-10%
Protocol: For the measurement in CH3CN: The samples were prepared in an air-saturated CH3CN solution containing the complex with an absorbance of 0.1 at the irradiation wavelength, N,N-dimethyl-4-nitrosoaniline aniline (RNO, 24 μM) and imidazole (12 mM). For the measurement in PBS buffer: The samples were prepared in an air-saturated PBS solution containing the complex with an absorbance of 0.1 at the irradiation wavelength, N,N-dimethyl-4-nitrosoaniline aniline (RNO, 20 μM) and histidine (10 mM). The samples were irradiated on 96 well plates with an Atlas Photonics LUMOS BIO irradiator for different times. The absorbance of the samples was measured during these time intervals with a SpectraMax M2 Microplate Reader (Molecular Devices). The difference in absorbance (A0-A) at 420 nm for the CH3CN solution or at 440 nm a PBS buffer solution was calculated and plotted against the irradiation times. From the plot the slope of the linear regression was calculated as well as the absorbance correction factor determined. The singlet oxygen quantum yields were calculated using the same formulas as used for the direct evaluation.
Additionally, the DFT calculations were able to characterize the lowest energy absorption band as a MLCT transition with a triplet state. With this in hand, a quantitative evaluation of singlet oxygen (^1O2) was performed to assess the potential of the PSs in PDT, by two methods: 1) direct by measurement of the luminescence of ^1O2, 2) indirect by measurement of the variation in absorbance of a reporter molecule, as described above. In the first method, the efficiency of the production of ^1O2 was assessed by measuring its phosphorescence at 1270 nm. Worthy of note, the possibility of detection in this experiment is affected by its environment as well as the used setup. With the setup used in this study, we could only detect Φ(^1O2) larger than 0.20 based on a low peak-to-noise ratio. In the second method (indirect method), ^1O2 is reacting with imidazole (in CH3CN) and histidine (in PBS buffer) to a trans-annular peroxide adduct. This can further quench the absorbance of the reporter molecule p-nitrosodimethyl aniline (RNO), which has been monitored by UV/VIS spectroscopy. In both methods, the ^1O2 production has been compared with a reference molecule, namely a solution of phenalenone in CH3CN (Φ(^1O2)phenaleone=0.95)^33 and a solution of [Ru(bipy)3]Cl2 in water Φ(^1O2)Ru(bipy)3Cl2=0.22)^31. […] In comparison, the values changed drastically in an aqueous solution. […] They have untypically low Φ(^1O2) values in CH3CN (0.22-0.35) for Ru(II) polypyridyl complexes. Subsequently, the ^1O2 production was also quite low in an aqueous environment.

[2] = Emission of the complexes in CH3CN upon excitation at 355 nm; type: physicochemical; conditions: room temperature
Protocol: The absorption of the samples in cuvettes has been measured with a Lambda 800 UV/VIS Spectrometer (PerkinElmer Instruments) and in 96 well plates with a SpectraMax M2 Spectrometer (Molecular Devices). The emission was measured by irradiation of the sample in fluorescence quartz cuvettes (width 1 cm) using a NT342B Nd-YAG pumped optical parametric oscillator (Ekspla) at 355 nm. Luminescence was focused and collected at right angle to the excitation pathway and directed to a Princeton Instruments Acton SP-2300i monochromator equipped with 1200 g/mm grating blazed at 500 nm. As a detector a XPI-Max 4 CCD camera (Princeton Instruments) has been used.
Upon excitation at 355 nm, the emission of the complexes in CH3CN was determined. The maximum of the emission signal was measured between 600-710 nm (Table 1). […] This leads for all investigated complexes to a large Stokes shift implying minimal inference between excitation and luminescence.

[3] = In vivo biodistribution in healthy BALB/c mice (ruthenium by ICP-MS); set-up: species or system mouse
Protocol: Twenty four, 8 week old healthy BALB/c female mice were used in this study. 0.015 mg/ml solution of complex 6 was prepared in Milli-Q water and filtrated (0.2 μm cellulose acetate membrane, VWR). For the introduction of solution of complex 6, IV injection was used (300 μl per mouse). Organ samples, including brain, liver, spleen, kidneys and lung, were collected from treated mice after 2 h, 6 h and 24 h post-injection. Each time six mice were sacrificed. Remaining six animals were used as a control.
For these experiments, we have decided to use the chloride salt of the complex 6 to improve its solubility. The time-dependent biodistribution of this compound in different organs was determined in healthy 8-week-old BALB/c mice according to the above-described method. The amount of ruthenium in the tested samples was assessed using Inductive Coupled Plasma Mass-Spectrometry (ICP-MS). […] After 24 h, the amount of ruthenium in the liver decreased. This is a very promising result that could indicate that complex 6 is metabolized by the liver in living organisms.

F[P-](F)(F)(F)(F)F.F[P-](F)(F)(F)(F)F.[Ru+2].c1ccc(-c2ccccn2)nc1.c1cnc2c(c1)ccc1cccnc12.c1cnc2c(c1)ccc1cccnc12 [Compound 1, (Bipyridine)bis(1,10-phenanthroline)ruthenium(II)hexafluorophosphate]
Singlet oxygen quantum yield Φ(1O2), CH3CN Indirect [1]: 0.54
Singlet oxygen quantum yield Φ(1O2), PBS indirect [1]: 0.46
Emission λem [2]: 600 nm

Cc1ccnc(-c2cc(C)ccn2)c1.F[P-](F)(F)(F)(F)F.F[P-](F)(F)(F)(F)F.[Ru].c1cnc2c(c1)ccc1cccnc12.c1cnc2c(c1)ccc1cccnc12 [Compound 2, (4,4′-Dimethyl-2,2′-bipyridine)bis(1,10-phenanthroline)ruthenium(II)hexafluorophosphate]
Singlet oxygen quantum yield Φ(1O2), CH3CN Indirect [1]: 0.53
Singlet oxygen quantum yield Φ(1O2), PBS indirect [1]: 0.34
Emission λem [2]: 606 nm

(2,2′-bipyridine-4,4′-carboxamide)bis(1,10-phenanthroline)ruthenium(II) hexafluorophosphate [Compound 4]
Singlet oxygen quantum yield Φ(1O2), CH3CN Indirect [1]: 0.59
Singlet oxygen quantum yield Φ(1O2), PBS indirect [1]: 0.26
Emission λem [2]: 654 nm

(4,4′-Dibromo-2,2′-bipyridine)bis(1,10-phenanthroline)ruthenium(II) hexafluorophosphate [Compound 3]
Singlet oxygen quantum yield Φ(1O2), CH3CN Indirect [1]: 0.56
Singlet oxygen quantum yield Φ(1O2), PBS indirect [1]: 0.16
Emission λem [2]: 645 nm

(4,4′-Dimethyl-2,2′-bipyridine)bis(4,7-diphenyl-1,10-phenanthroline)ruthenium(II) hexafluorophosphate [Compound 6]
Levels of Ru in harvested organs (brain, liver, spleen, kidneys, lung) ([3]; IV injection, 6 h post injection, chloride salt): only liver had clearly increased levels of Ru
Amount of ruthenium in the liver ([3]; IV injection, after 24 h, chloride salt): decreased
Behaviour of treated animals ([3]; IV injection, chloride salt): behave normally, without signs of pain, stress or discomfort
Blood analysis, immune response compared to untreated control ([3]; after 24 h treatment): no sign of immune response
Singlet oxygen quantum yield Φ(1O2), CH3CN Indirect [1]: 0.63
Singlet oxygen quantum yield Φ(1O2), PBS indirect [1]: 0.03
Emission λem [2]: 623 nm

((E,E′)-4,4′-Bis(N,N′-dimethylaminovinyl)-2,2′-bipyridine)bis(1,10-phenanthroline)ruthenium(II) hexafluorophosphate [Compound 5]
Singlet oxygen quantum yield Φ(1O2), CH3CN Indirect [1]: 0.30
Singlet oxygen quantum yield Φ(1O2), PBS indirect [1]: 0.21
Emission λem [2]: 703 nm

((E,E′)-4,4′-Bis(N,N′-dimethylaminovinyl)-2,2′-bipyridine)bis(4,7-diphenyl-1,10-phenanthroline)ruthenium(II) hexafluorophosphate [Compound 7]
Singlet oxygen quantum yield Φ(1O2), CH3CN Indirect [1]: 0.35
Singlet oxygen quantum yield Φ(1O2), PBS indirect [1]: 0.07
Emission λem [2]: 694 nm
